For this experiment, the system named is MV-4-11 cells. As to the kind of experiment: Gene expression microarray analysis (Affymetrix PrimeView) and GSEA. It counts as cell-based, human. More on the design: RFU PODN (11730768_x_at) / Fold change /veh PODN (11730768_x_at) / RFU LINC00158 (11744669_a_at) / Fold change /veh LINC00158 (11744669_a_at) / RFU DUSP10 (11751237_a_at) / Fold change /veh DUSP10 (11751237_a_at) / RFU ID3 (11757404_x_at) / Fold change /veh ID3 (11757404_x_at) / RFU PLEKHG5 (11737974_s_at) / Fold change /veh PLEKHG5 (11737974_s_at) / RFU LRRC4B (11730491_at) / Fold change /veh LRRC4B (11730491_at) / RFU GIMAP4 (11747438_a_at) / Fold change /veh GIMAP4 (11747438_a_at) / RFU KRT8 (11758183_x_at) / Fold change /veh KRT8 (11758183_x_at) / RFU CNN1 (11734310_a_at) / Fold change /veh CNN1 (11734310_a_at) / RFU VPS37D (11726825_at) / Fold change /veh VPS37D (11726825_at) / RFU C10orf10 (11716522_x_at) / Fold change /veh C10orf10 (11716522_x_at) / RFU KIR2DL2 /// KIR2DL4 /// KIR2DL5A /// KIR2DL5B /// KIR2DS1 /// KIR2DS2 /// KIR2DS3 /// KIR2DS4 /// KIR3DL3 /// KIR3DL3 /// KIR3DS1 (11738374_at) / Fold change /veh KIR2DL2 /// KIR2DL4 /// KIR2DL5A /// KIR2DL5B /// KIR2DS1 /// KIR2DS2 /// KIR2DS3 /// KIR2DS4 /// KIR3DL3 /// KIR3DL3 /// KIR3DS1 (11738374_at) / RFU C1QL1 (11718748_at) / Fold change /veh C1QL1 (11718748_at) / RFU TMPRSS4 (11747572_a_at) / Fold change /veh TMPRSS4 (11747572_a_at) / RFU HAMP (11756126_x_at) / Fold change /veh HAMP (11756126_x_at) / RFU RNFT2 (11725882_a_at) / Fold change /veh RNFT2 (11725882_a_at) / RFU NR4A2 (11747474_a_at) / Fold change /veh NR4A2 (11747474_a_at) / RFU ABCC12 (11746883_a_at) / Fold change /veh ABCC12 (11746883_a_at) / RFU TMEM136 (11760407_x_at) / Fold change /veh TMEM136 (11760407_x_at) / RFU CLDN22 /// WWC2 (11732394_at) / Fold change /veh CLDN22 /// WWC2 (11732394_at) / RFU HLA-DPB1 (11760878_x_at) / Fold change /veh HLA-DPB1 (11760878_x_at) / RFU SPINT1 (11716480_a_at) / Fold change /veh SPINT1 (11716480_a_at) / RFU GAP43 (11754022_s_at) / Fold change /veh GAP43 (11754022_s_at) / RFU A4GNT (11735810_at) / Fold change /veh A4GNT (11735810_at) / RFU PRB3 (11715151_x_at) / Fold change /veh PRB3 (11715151_x_at) / RFU TUBB4B (11761932_at) / Fold change /veh TUBB4B (11761932_at) / RFU CAPN14 (11732068_a_at) / Fold change /veh CAPN14 (11732068_a_at) / RFU TMCC2 (11721928_a_at) / Fold change /veh TMCC2 (11721928_a_at) / RFU IRGQ (11745062_a_at) / Fold change /veh IRGQ (11745062_a_at) / RFU FAM174B (11720279_a_at) / Fold change /veh FAM174B (11720279_a_at) / RFU TMPRSS4 (11748680_a_at) / Fold change /veh TMPRSS4 (11748680_a_at) / RFU FAM212B (11763350_a_at) / Fold change /veh FAM212B (11763350_a_at) / RFU PLEKHG5 (11743358_a_at) / Fold change /veh PLEKHG5 (11743358_a_at) / RFU ZSCAN30 (11745921_a_at) / Fold change /veh ZSCAN30 (11745921_a_at) / RFU CMKLR1 (11741424_a_at) / Fold change /veh CMKLR1 (11741424_a_at) / RFU LOC101060620 /// MAPK8IP1 (11723275_at) / Fold change /veh LOC101060620 /// MAPK8IP1 (11723275_at) / RFU SPTSSB (11747773_x_at) / Fold change /veh SPTSSB (11747773_x_at) / RFU PRSS12 (11739890_at) / Fold change /veh PRSS12 (11739890_at) / RFU BIN1 (11741810_x_at) / Fold change /veh BIN1 (11741810_x_at) / RFU WNT11 (11732464_a_at) / Fold change /veh WNT11 (11732464_a_at) / RFU C10orf10 (11716521_a_at) / Fold change /veh C10orf10 (11716521_a_at) / RFU C5orf56 (11738089_at) / Fold change /veh C5orf56 (11738089_at) / RFU CYB561 (11721691_x_at) / Fold change /veh CYB561 (11721691_x_at) / RFU ANKRD19P (11752326_a_at) / Fold change /veh ANKRD19P (11752326_a_at) / RFU OR2T12 /// OR2T33 /// OR2T8 (11738714_s_at) / Fold change /veh OR2T12 /// OR2T33 /// OR2T8 (11738714_s_at) / RFU VCAN (11748164_a_at) / Fold change /veh VCAN (11748164_a_at) / RFU JSRP1 (11732532_at) / Fold change /veh JSRP1 (11732532_at) / RFU KRTAP10-11 (11738290_x_at) / Fold change /veh KRTAP10-11 (11738290_x_at) / RFU MYO3A (11730013_a_at) / Fold change /veh MYO3A (11730013_a_at) / RFU EBF3 (11725865_a_at) / Fold change /veh EBF3 (11725865_a_at) / RFU CAMK2N1 (11719241_x_at) / Fold change /veh CAMK2N1 (11719241_x_at) / RFU C5orf56 (11738088_a_at) / Fold change /veh C5orf56 (11738088_a_at) / RFU OLFML3 (11715873_a_at) / Fold change /veh OLFML3 (11715873_a_at) / RFU LOC100653217 /// NTM (11731650_a_at) / Fold change /veh LOC100653217 /// NTM (11731650_a_at) / RFU MAPK11 (11762145_a_at) / Fold change /veh MAPK11 (11762145_a_at) / RFU FIZ1 (11724087_x_at) / Fold change /veh FIZ1 (11724087_x_at) / RFU OASL (11726364_x_at) / Fold change /veh OASL (11726364_x_at) / RFU SOX15 (11748057_x_at) / Fold change /veh SOX15 (11748057_x_at) / RFU CD79A (11719716_a_at) / Fold change /veh CD79A (11719716_a_at) / RFU HIST1H1D (11736915_at) / Fold change /veh HIST1H1D (11736915_at) / RFU CASKIN2 (11723855_a_at) / Fold change /veh CASKIN2 (11723855_a_at) / RFU LOC730098 (11760151_x_at) / Fold change /veh LOC730098 (11760151_x_at) / RFU OR4N2 (11742367_at) / Fold change /veh OR4N2 (11742367_at) / RFU PRRT2 (11749266_a_at) / Fold change /veh PRRT2 (11749266_a_at) / RFU SNX32 (11753110_a_at) / Fold change /veh SNX32 (11753110_a_at) / RFU CDHR5 (11726645_a_at) / Fold change /veh CDHR5 (11726645_a_at) / RFU RCAN1 (11760418_a_at) / Fold change /veh RCAN1 (11760418_a_at) / RFU FAM167A (11723789_a_at) / Fold change /veh FAM167A (11723789_a_at) / RFU FAM26E (11764081_at) / Fold change /veh FAM26E (11764081_at) / RFU ISYNA1 (11749810_s_at) / Fold change /veh ISYNA1 (11749810_s_at) / RFU ACY1 (11761880_at) / Fold change /veh ACY1 (11761880_at) / RFU 11764098_at / Fold change /veh 11764098_at / RFU SAMD14 (11745864_x_at) / Fold change /veh SAMD14 (11745864_x_at) / RFU NPB (11741838_a_at) / Fold change /veh NPB (11741838_a_at) / RFU TMPRSS6 (11731388_a_at) / Fold change /veh TMPRSS6 (11731388_a_at) / RFU KRTAP10-2 (11738614_at) / Fold change /veh KRTAP10-2 (11738614_at) / RFU ARHGAP8 /// PRR5-ARHGAP8 (11727945_x_at) / Fold change /veh ARHGAP8 /// PRR5-ARHGAP8 (11727945_x_at) / RFU KRTAP5-7 /// NADSYN1 (11734609_at) / Fold change /veh KRTAP5-7 /// NADSYN1 (11734609_at) / RFU RASL12 (11751679_a_at) / Fold change /veh RASL12 (11751679_a_at) / RFU CDKN2B (11736163_a_at) / Fold change /veh CDKN2B (11736163_a_at) / RFU PRF1 (11729649_at) / Fold change /veh PRF1 (11729649_at) / RFU, ZNF638 /// ZNF638-IT1 / Fold change vs veh, ZNF638 /// ZNF638-IT1 / RFU, PANK3 / Fold change vs veh, PANK3 / RFU, SH3YL1 / Fold change vs veh, SH3YL1 / RFU, ZEB2 / Fold change vs veh, ZEB2 / RFU, NRIP1 / Fold change vs veh, NRIP1 / RFU, PTTG1IP / Fold change vs veh, PTTG1IP / RFU, CAPN2 / Fold change vs veh, CAPN2 / RFU, MED14 / Fold change vs veh, MED14 / RFU, SNORA58 / Fold change vs veh, SNORA58 / RFU, C1orf63 / Fold change vs veh, C1orf63 / RFU, LRRFIP1 / Fold change vs veh, LRRFIP1 / RFU, NDUFAF7 / Fold change vs veh, NDUFAF7 / RFU, SLC12A2 / Fold change vs veh, SLC12A2 / RFU, IBTK / Fold change vs veh, IBTK / RFU, ESF1 / Fold change vs veh, ESF1 / Fold change vs veh, TMEM50B / RFU, TAOK1 / Fold change vs veh, TAOK1 / RFU, ACBD3 / Fold change vs veh, ACBD3 / RFU, TMA16 / Fold change vs veh, TMA16 / RFU, RWDD3 / Fold change vs veh, RWDD3 / RFU, BCAT1 / Fold change vs veh, BCAT1 / RFU, EDEM3 / Fold change vs veh, EDEM3 / RFU, TMEM33 / Fold change vs veh, TMEM33 / RFU, WDR75 / Fold change vs veh, WDR75 / RFU, AHCTF1 / Fold change vs veh, AHCTF1 / RFU, TFRC / Fold change vs veh, TFRC / RFU, ZDHHC17 / Fold change vs veh, ZDHHC17 / RFU, NOM1 / Fold change vs veh, NOM1 / RFU, ARL8B / Fold change vs veh, ARL8B / RFU, ZBTB11 / Fold change vs veh, ZBTB11 / RFU, TAMM41 / Fold change vs veh, TAMM41 / RFU, KIAA1704 /// LOC100996395 / Fold change vs veh, KIAA1704 /// LOC100996395 / RFU, ING1 / Fold change vs veh, ING1 / RFU, TRMT61B / Fold change vs veh, TRMT61B / RFU, FUBP3 / Fold change vs veh, FUBP3 / RFU, TP53 / Fold change vs veh, TP53 / RFU, TNKS2 / Fold change vs veh, TNKS2 / RFU, ZFP14 / Fold change vs veh, ZFP14 / RFU, ACTR2 / Fold change vs veh, ACTR2 / RFU, PPP3R1 / Fold change vs veh, PPP3R1 / RFU, PIK3R1 / Fold change vs veh, PIK3R1 / RFU, HNRNPA1 / Fold change vs veh, HNRNPA1 / RFU, RNF170 / Fold change vs veh, RNF170 / RFU, ZNF28 / Fold change vs veh, ZNF28 / RFU, RNGTT / Fold change vs veh, RNGTT / RFU, OGT / Fold change vs veh, OGT / RFU, BRD1 / Fold change vs veh, BRD1 / RFU, MARS / Fold change vs veh, MARS / RFU, ZNF655 / Fold change vs veh, ZNF655 / RFU, FAHD1 / Fold change vs veh, FAHD1 / RFU, BDP1 / Fold change vs veh, BDP1 / RFU, LRRCC1 / Fold change vs veh, LRRCC1 / RFU, ARID1A / Fold change vs veh, ARID1A / RFU, ZNF146 / Fold change vs veh, ZNF146 / RFU, ZNF330 / Fold change vs veh, ZNF330 / RFU, GPN3 / Fold change vs veh, GPN3 / RFU, C9orf123 / Fold change vs veh, C9orf123 / RFU, N4BP2L2 / Fold change vs veh, N4BP2L2 / RFU, ARFIP1 / Fold change vs veh, ARFIP1 / RFU, FAM179B / Fold change vs veh, FAM179B / RFU, BCL10 / Fold change vs veh, BCL10 / RFU, UHRF1BP1L / Fold change vs veh, UHRF1BP1L / RFU, BET1 / Fold change vs veh, BET1 / RFU, CNOT2 / Fold change vs veh, CNOT2 / RFU, ZNF268 / Fold change vs veh, ZNF268 / Fold change vs veh, ZNF507 / RFU, DGCR2 / Fold change vs veh, DGCR2 / RFU, WDSUB1 / Fold change vs veh, WDSUB1 / Fold change vs veh, HSP90B1 /// MIR3652 / RFU, ADSS / Fold change vs veh, ADSS / RFU, GK / Fold change vs veh, GK / RFU, ZNF148 / Fold change vs veh, ZNF148 / RFU, TAF9 / Fold change vs veh, TAF9 / RFU, SLC1A5 / Fold change vs veh, SLC1A5 / RFU, SLMO2 / Fold change vs veh, SLMO2 / RFU, ABCC4 / Fold change vs veh, ABCC4 / RFU, LOC101060439 /// RAP1B / Fold change vs veh, LOC101060439 /// RAP1B / RFU, RFX7 / Fold change vs veh, RFX7 / RFU, GTPBP10 / Fold change vs veh, GTPBP10 / RFU, CNEP1R1 / Fold change vs veh, CNEP1R1 / RFU, BIVM-ERCC5 /// ERCC5 / Fold change vs veh, BIVM-ERCC5 /// ERCC5 / RFU, ILF3 / Fold change vs veh, ILF3 / RFU 11762660_at / Fold change /veh 11762660_at / RFU VCAN (11757783_s_at) / Fold change /veh VCAN (11757783_s_at) / RFU DDX43 (11728927_at) / Fold change /veh DDX43 (11728927_at) / RFU KRT8 (11758188_x_at) / Fold change /veh KRT8 (11758188_x_at) / RFU NKD1 (11759106_at) / Fold change /veh NKD1 (11759106_at) / RFU SRD5A1 (11742802_a_at) / Fold change /veh SRD5A1 (11742802_a_at) / RFU TPSAB1 /// TPSB2 (11721975_s_at) / Fold change /veh TPSAB1 /// TPSB2 (11721975_s_at) / RFU GSTM3 (11746129_a_at) / Fold change /veh GSTM3 (11746129_a_at) / RFU IL23R (11737362_x_at) / Fold change /veh IL23R (11737362_x_at) / RFU TMEM51 (11727254_a_at) / Fold change /veh TMEM51 (11727254_a_at) / RFU PIWIL2 (11732686_x_at) / Fold change /veh PIWIL2 (11732686_x_at) / RFU ORM1 (11744905_x_at) / Fold change /veh ORM1 (11744905_x_at) / RFU CCDC152 (11743942_at) / Fold change /veh CCDC152 (11743942_at) / RFU ECM1 (11717891_a_at) / Fold change /veh ECM1 (11717891_a_at) / RFU IL23R (11748794_a_at) / Fold change /veh IL23R (11748794_a_at) / RFU TNFAIP8L3 (11732012_x_at) / Fold change /veh TNFAIP8L3 (11732012_x_at) / RFU MBOAT4 (11741988_at) / Fold change /veh MBOAT4 (11741988_at) / RFU 11764193_at / Fold change /veh 11764193_at / RFU TMEM53 (11763286_at) / Fold change /veh TMEM53 (11763286_at) / RFU MAGEB2 (11727129_at) / Fold change /veh MAGEB2 (11727129_at) / RFU TMEM200A (11744735_a_at) / Fold change /veh TMEM200A (11744735_a_at) / RFU CCDC152 (11751479_a_at) / Fold change /veh CCDC152 (11751479_a_at) / RFU FAM211A (11726209_a_at) / Fold change /veh FAM211A (11726209_a_at) / RFU RGS16 (11746705_a_at) / Fold change /veh RGS16 (11746705_a_at) / RFU VCAN (11755009_s_at) / Fold change /veh VCAN (11755009_s_at) / RFU RHOB (11743442_s_at) / Fold change /veh RHOB (11743442_s_at) / RFU RGS16 (11720943_a_at) / Fold change /veh RGS16 (11720943_a_at) / RFU RGS16 (11720944_at) / Fold change /veh RGS16 (11720944_at) / RFU, VPS4B / Fold change vs veh, VPS4B / RFU, CREB1 / Fold change vs veh, CREB1 / RFU, DNAJC13 / Fold change vs veh, DNAJC13 / RFU, GNAQ / Fold change vs veh, GNAQ / RFU, CDK5R1 / Fold change vs veh, CDK5R1 / RFU, ZRANB3 / Fold change vs veh, ZRANB3 / RFU, CUL4A / Fold change vs veh, CUL4A / RFU, CCNY / Fold change vs veh, CCNY / RFU, UFL1 / Fold change vs veh, UFL1 / RFU, COG3 / Fold change vs veh, COG3 / RFU, DIAPH2 / Fold change vs veh, DIAPH2 / RFU, SKA2 / Fold change vs veh, SKA2 / RFU, AFF3 / Fold change vs veh, AFF3 / RFU, LMF1 / Fold change vs veh, LMF1 / RFU, IPO11 / Fold change vs veh, IPO11 / RFU, DFFB / Fold change vs veh, DFFB / RFU, FOXP1 / Fold change vs veh, FOXP1 / RFU, CARD8 / Fold change vs veh, CARD8 / RFU, STRN3 / Fold change vs veh, STRN3 / RFU, ADK / Fold change vs veh, ADK / RFU, RASSF2 / Fold change vs veh, RASSF2 / RFU, WIPF1 / Fold change vs veh, WIPF1 / RFU, LARP1B / Fold change vs veh, LARP1B / RFU, RASA1 / Fold change vs veh, RASA1 / RFU, RB1 / Fold change vs veh, RB1 / RFU, PPFIA1 / Fold change vs veh, PPFIA1 / RFU, MAT2A / Fold change vs veh, MAT2A / RFU, CCT5 / Fold change vs veh, CCT5 / RFU, WDR92 / Fold change vs veh, WDR92 / RFU, CUX1 / Fold change vs veh, CUX1 / RFU, TTC7A / Fold change vs veh, TTC7A / RFU, TMEM135 / Fold change vs veh, TMEM135 / RFU, DEPTOR / Fold change vs veh, DEPTOR / RFU, CPM / Fold change vs veh, CPM / RFU, DNAJB6 / Fold change vs veh, DNAJB6 / RFU, CACNA2D3 / Fold change vs veh, CACNA2D3 / RFU, DTX4 / Fold change vs veh, DTX4 / RFU, TFCP2 / Fold change vs veh, TFCP2 / RFU, GMCL1 /// GMCL1P1 / Fold change vs veh, GMCL1 /// GMCL1P1 / RFU, AEBP2 / Fold change vs veh, AEBP2 / RFU, SNHG1 /// SNORD22 /// SNORD25 /// SNORD26 /// SNORD27 /// SNORD28 /// SNORD29 /// SNORD31 / Fold change vs veh, SNHG1 /// SNORD22 /// SNORD25 /// SNORD26 /// SNORD27 /// SNORD28 /// SNORD29 /// SNORD31 / Fold change (Aza/veh), C12orf56 (ProbeSet 11735607_a_at) / Fold change (ACY-1035/veh), C12orf56 (ProbeSet 11735607_a_at) / Fold change (Aza/veh), FGFR1OP (ProbeSet 11751329_s_at) / Fold change (ACY-1035/veh), FGFR1OP (ProbeSet 11751329_s_at) / Fold change (Aza/veh), VPS36 (ProbeSet 11739960_a_at) / Fold change (ACY-1035/veh), VPS36 (ProbeSet 11739960_a_at) / RFU SYPL1 (11715823_x_at) / Fold change /veh SYPL1 (11715823_x_at) / RFU IGFBP7 (11715501_s_at) / Fold change /veh IGFBP7 (11715501_s_at) / RFU REEP3 (11722064_at) / Fold change /veh REEP3 (11722064_at) / RFU IGLL1 (11728026_x_at) / Fold change /veh IGLL1 (11728026_x_at): dose or concentration left out as unconfirmed. Conditions: ProbeSet 11724526_at; LIST B.

Consider `Nc1ncn([C@@H]2O[C@H](CO)[C@@H](O)[C@H]2O)c(=O)n1` [azacitidine], for which the “Fold change vs veh, FAHD1” value is listed as 0.84.

Source of the values: paper PMC5218480 (PLoS ONE, 2017).
